From patent US12116424B2, “Compounds and compositions for modulating Listeria virulence” (priority 2021, dated 2024)
Where a SMILES comes first, the peptide text is derived from it. Bridges are numbered along the chain shown (N, C = ends). [ ]: non-standard residue; d: D form. dDap = NC[C@@H](N)C(=O)O; Dap = NC[C@H](N)C(=O)O

Target: L. monocytogenes AgrC (Listeria monocytogenes serovar 1/2a, UniProt Q8YAR5)
Assay: Fluorescence (agr-GFP) reporter agonism assay, ΔagrD reporter strain
Assay type: cell-based
Design: Emax: dose or concentration left out as unconfirmed
Settings: for Emax: read-out: Max Activation Observed; for agonism activity (in words): ΔagrD reporter; for loss in potency: agonism, relative to native AIP
Text: Construction of Listeria agr Reporter Strains. A gene block was designed and purchased from Integrated DNA Technologies to contain an EagI recognition site, the PII promoter of the agr system, the 3′ UTR of hly, super folder GFP, and a SaII recognition site. The gene block was digested with EagI and SaII, cloned into an EagI/SaII-cut pAM401 plasmid resulting in the plasmid pAM401-KW1, and then transformed into E. coli XL1-Blue competent cells. The insertion into pAM401 was confirmed using Kapa polymerase and primers DAP337 and DAP338, and additional confirmation via commercial sequencing. Purified plasmid was transformed into the conjugative E. coli S17 strain, which was used to conjugate to EGD-e and EGD-e ΔagrD to generate the agr-GFP reporter strains EGD-e:pAM401-KW1 and EGD-e ΔagrD:pAM401-KW1. Conjugation was verified using primers DAP337 and DAP338.
Fluorescence reporter assay protocol. For QS (agr) reporter assays, peptide stock solutions in DMSO (1 mM) were serially diluted in DMSO, and 2 μL of solution was added to each well in a black 96-well plate (polystyrene microtiter plate, Costar). Agonism assays utilized the ΔagrD reporter strain, with 2 μL of 100 μM AIP (final concentration 1 μM) as a positive control and 2 μL of DMSO as a negative control. Antagonism assays utilized the EGD-e reporter strain, with 2 μL of DMSO as a positive control. In both assays, wells containing only BHI media served as negative controls for normalization. An overnight culture of bacteria was diluted 1:50 in fresh BHI, then 198 μL were transferred to each well (excluding the media control wells). Plates were then incubated at 37° C. for 24 hours with shaking at 200 rpm. Fluorescence of GFP (excitation at 500 nm, emission at 540 nm) and OD600 of each well was measured using BioTek Synergy 2 plate reader. Measurements were processed by subtracting background fluorescence (BHI media), correcting by OD600, and the normalizing using the 1 μM AIP or the DMSO control for the agonism and antagonism assays, respectively. Non-linear regression curves were fitted to the data sets in GraphPad Prism 7 by using variable slope (four-parameter) dose-response analysis to obtain potency, efficacy, and statistical information about the activity of tested peptides. Each peptide was tested with three technical replicates and three biological replicates. All data derived from fluorescent reporter strains are represented with data points signifying the mean and error bars signifying the standard deviation from all replicates.
Preparation and Validation of Listeria agr Reporter Strains. In order to facilitate profiling the native AIP and its analogs for agr activity, L. monocytogenes agr GFP reporters were designed and constructed as described above (see Materials and General Methods). Briefly, a plasmid containing the agr promoter region upstream of gfp was transformed into wild-type (EGD-e) and ΔagrD L. monocytogenes strains. The wild-type reporter naturally produces its own AIP and is able to activate AgrC, which may subsequently phosphorylate AgrA for productive binding to DNA and triggering the production of GFP (FIG. 1A). The ΔagrD reporter, lacking the ability to produce its own AIP and thereby activate AgrC, is unable to trigger substantial production of GFP. However, adding exogenous AIP to the ΔagrD reporter results in an increase of fluorescence, indicating agr activity has been restored.

L. monocytogenes AgrC, sequence (Q8YAR5 entry or part of it): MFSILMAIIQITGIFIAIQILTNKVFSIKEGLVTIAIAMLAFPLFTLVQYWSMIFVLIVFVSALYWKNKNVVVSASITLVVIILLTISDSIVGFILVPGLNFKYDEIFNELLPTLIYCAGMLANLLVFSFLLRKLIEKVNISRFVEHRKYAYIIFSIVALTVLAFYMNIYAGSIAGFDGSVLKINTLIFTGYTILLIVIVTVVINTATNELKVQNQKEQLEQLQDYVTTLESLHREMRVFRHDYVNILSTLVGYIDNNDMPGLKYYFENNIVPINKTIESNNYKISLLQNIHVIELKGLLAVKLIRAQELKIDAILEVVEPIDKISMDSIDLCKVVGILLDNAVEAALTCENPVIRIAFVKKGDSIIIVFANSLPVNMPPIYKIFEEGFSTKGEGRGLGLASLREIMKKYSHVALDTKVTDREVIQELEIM

SMILES | Emax | agonism activity (in words) | loss in potency
CSCC[C@@H]1NC(=O)[C@H](Cc2ccccc2)NC(=O)[C@@H](NC(=O)[C@H](CCCCN)NC(=O)[C@@H](N)CCCCN)CSC(=O)[C@H](C(C)C)NC(=O)[C@H](Cc2ccccc2)NC1=O [7-mer A2K, K-K-(C-F-M-F-V)] (H-KKCFMFV; thioester 3-C; N-terminus assumed) | 64.8% | – | –
CSCC[C@@H]1NC(=O)[C@H](Cc2ccccc2)NC(=O)[C@H](NC(=O)[C@H](C)NC(=O)[C@@H](N)CCCCN)CSC(=O)[C@H](C(C)C)NC(=O)[C@H](Cc2ccccc2)NC1=O [7-mer C3dC, K-A-(dC-F-M-F-V)] (H-KA[dC]FMFV; thioester 3-C; N-terminus assumed) | 7.08% | – | –
CSCC[C@H]1NC(=O)[C@H](Cc2ccccc2)NC(=O)[C@H](NC(=O)[C@H](C)NC(=O)[C@@H](N)CCCCN)CSC(=O)[C@H](C(C)C)NC(=O)[C@H](Cc2ccccc2)NC1=O [7-mer C3dC/M5dM, K-A-(dC-F-dM-F-V)] (H-KA[dC]F[dM]FV; thioester 3-C; N-terminus assumed) | 7.89% | – | –
CSCC[C@H]1NC(=O)[C@H](Cc2ccccc2)NC(=O)[C@@H](NC(=O)[C@H](C)NC(=O)[C@@H](N)CCCCN)CSC(=O)[C@H](C(C)C)NC(=O)[C@H](Cc2ccccc2)NC1=O [7-mer M5dM, K-A-(C-F-dM-F-V)] (H-KACF[dM]FV; thioester 3-C; N-terminus assumed) | 71.9% | – | –
CSCC[C@@H]1NC(=O)[C@H](Cc2ccccc2)NC(=O)[C@@H](NC(=O)[C@@H](N)CCCCN)CSC(=O)[C@H](C(C)C)NC(=O)[C@H](Cc2ccccc2)NC1=O [AIP A1K, K-(C-F-M-F-V)] (H-KCFMFV; thioester 2-C; N-terminus assumed) | 80% | partial agonists with slightly diminished agonistic activity | –
CSCC[C@@H]1NC(=O)[C@H](Cc2ccccc2)NC(=O)[C@H](NC(=O)[C@@H](N)CCCCN)CSC(=O)[C@H](C(C)C)NC(=O)[C@H](Cc2ccccc2)NC1=O [AIP A1K/C2dC, K-(dC-F-M-F-V)] (H-K[dC]FMFV; thioester 2-C; N-terminus assumed) | 10.2% | – | –
CSCC[C@H]1NC(=O)[C@H](Cc2ccccc2)NC(=O)[C@@H](NC(=O)[C@@H](N)CCCCN)CSC(=O)[C@H](C(C)C)NC(=O)[C@H](Cc2ccccc2)NC1=O [AIP A1K/M4dM, K-(C-F-dM-F-V)] (H-KCF[dM]FV; thioester 2-C; N-terminus assumed) | 74.1% | – | –
CSCC[C@@H]1NC(=O)[C@H](Cc2ccccc2)NC(=O)[C@@H](NC(=O)[C@@H]2CCCN2)CSC(=O)[C@H](C(C)C)NC(=O)[C@H](Cc2ccccc2)NC1=O [AIP A1P, P-(C-F-M-F-V)] (H-PCFMFV; thioester 2-C; N-terminus assumed) | 76.8% | partial agonists with slightly diminished agonistic activity | –
CSCC[C@@H]1NC(=O)[C@H](Cc2ccccc2)NC(=O)[C@@H](NC(=O)[C@@H](N)[C@@H](C)O)CSC(=O)[C@H](C(C)C)NC(=O)[C@H](Cc2ccccc2)NC1=O [AIP A1T, T-(C-F-M-F-V)] (H-TCFMFV; thioester 2-C; N-terminus assumed) | 88.1% | partial agonists with slightly diminished agonistic activity | –
CSCC[C@@H]1NC(=O)[C@H](Cc2ccccc2)NC(=O)[C@@H](NC(=O)[C@@H](N)C(C)C)CSC(=O)[C@H](C(C)C)NC(=O)[C@H](Cc2ccccc2)NC1=O [AIP A1V, V-(C-F-M-F-V)] (H-VCFMFV; thioester 2-C; N-terminus assumed) | 109% | maintained the full activity of the parent AIP with enhanced potency | –
CSCC[C@@H]1NC(=O)[C@H](Cc2ccccc2)NC(=O)[C@@H](NC(=O)[C@@H](C)N)CSC(=O)[C@H](C(C)C)NC(=O)[C@H](Cc2ccccc2)NC1=O [AIP A1dA, dA-(C-F-M-F-V)] (H-[dA]CFMFV; thioester 2-C; N-terminus assumed) | 58.8% | – | –
CSCC[C@@H]1NC(=O)[C@H](Cc2ccccc2)NC(=O)[C@@H](NC(=O)[C@H](C)N)CNC(=O)[C@H](C(C)C)NC(=O)[C@H](Cc2ccccc2)NC1=O [AIP C2Dap, A-(Dap-F-M-F-V)] (H-A[Dap]FMFV; lactam 2-C; N-terminus assumed) | 92.9% | largely retains the activation activity of the native AIP | 10 fold
CSCC[C@@H]1NC(=O)[C@H](Cc2ccccc2)NC(=O)[C@H](NC(=O)[C@H](C)N)CSC(=O)[C@H](C(C)C)NC(=O)[C@H](Cc2ccccc2)NC1=O [AIP C2dC, A-(dC-F-M-F-V)] (H-A[dC]FMFV; thioester 2-C; N-terminus assumed) | 41% | lost a substantial amount of agonism activity | three-fold
CSCC[C@H]1NC(=O)[C@H](Cc2ccccc2)NC(=O)[C@H](NC(=O)[C@H](C)N)CSC(=O)[C@H](C(C)C)NC(=O)[C@H](Cc2ccccc2)NC1=O [AIP C2dC/M4dM, A-(dC-F-dM-F-V)] (H-A[dC]F[dM]FV; thioester 2-C; N-terminus assumed) | 35.7% | – | –
CSCC[C@@H]1NC(=O)[C@H](Cc2ccccc2)NC(=O)[C@H](NC(=O)[C@H](C)N)CNC(=O)[C@H](C(C)C)NC(=O)[C@H](Cc2ccccc2)NC1=O [AIP C2dDap, A-(Dap-F-M-F-V)] (H-A[dDap]FMFV; lactam 2-C; N-terminus assumed) | 14.3% | little or no agr activation | –
CSCC[C@@H]1NC(=O)[C@H](Cc2c[nH]cn2)NC(=O)[C@@H](NC(=O)[C@H](C)N)CSC(=O)[C@H](C(C)C)NC(=O)[C@H](Cc2ccccc2)NC1=O [AIP F3H, A-(C-H-M-F-V)] (H-ACHMFV; thioester 2-C; N-terminus assumed) | 12.4% | – | –
CSCC[C@@H]1NC(=O)[C@H](CC(C)C)NC(=O)[C@@H](NC(=O)[C@H](C)N)CSC(=O)[C@H](C(C)C)NC(=O)[C@H](Cc2ccccc2)NC1=O [AIP F3L, A-(C-L-M-F-V)] (H-ACLMFV; thioester 2-C; N-terminus assumed) | 37.6% | – | –
CSCC[C@@H]1NC(=O)[C@H](Cc2c[nH]c3ccccc23)NC(=O)[C@@H](NC(=O)[C@H](C)N)CSC(=O)[C@H](C(C)C)NC(=O)[C@H](Cc2ccccc2)NC1=O [AIP F3W, A-(C-W-M-F-V)] (H-ACWMFV; thioester 2-C; N-terminus assumed) | 60.6% | – | –
CSCC[C@@H]1NC(=O)[C@H](Cc2ccc(O)cc2)NC(=O)[C@@H](NC(=O)[C@H](C)N)CSC(=O)[C@H](C(C)C)NC(=O)[C@H](Cc2ccccc2)NC1=O [AIP F3Y, A-(C-Y-M-F-V)] (H-ACYMFV; thioester 2-C; N-terminus assumed) | 47.4% | – | –
CSCC[C@@H]1NC(=O)[C@H](Cc2ccccc2)NC(=O)[C@@H](NC(=O)[C@H](C)N)CSC(=O)[C@H](C(C)C)NC(=O)[C@H](Cc2c[nH]cn2)NC1=O [AIP F5H, A-(C-F-M-H-V)] (H-ACFMHV; thioester 2-C; N-terminus assumed) | 7.13% | – | –
CSCC[C@@H]1NC(=O)[C@H](Cc2ccccc2)NC(=O)[C@@H](NC(=O)[C@H](C)N)CSC(=O)[C@H](C(C)C)NC(=O)[C@H](CC(C)C)NC1=O [AIP F5L, A-(C-F-M-L-V)] (H-ACFMLV; thioester 2-C; N-terminus assumed) | 64.8% | – | –
CSCC[C@@H]1NC(=O)[C@H](Cc2ccccc2)NC(=O)[C@@H](NC(=O)[C@H](C)N)CSC(=O)[C@H](C(C)C)NC(=O)[C@H](Cc2c[nH]c3ccccc23)NC1=O [AIP F5W, A-(C-F-M-W-V)] (H-ACFMWV; thioester 2-C; N-terminus assumed) | 85.8% | – | –
CSCC[C@@H]1NC(=O)[C@H](Cc2ccccc2)NC(=O)[C@@H](NC(=O)[C@H](C)N)CSC(=O)[C@H](C(C)C)NC(=O)[C@H](Cc2ccc(O)cc2)NC1=O [AIP F5Y, A-(C-F-M-Y-V)] (H-ACFMYV; thioester 2-C; N-terminus assumed) | 44.4% | – | –
